{"source": "patent US20090291857A1", "about": "“METHODS TO IDENTIFY INHIBITORS OF THE UNFOLDED PROTEIN RESPONSE” (THE BOARD OF TRUSTEES OF THE LELAND STANFORD JUNIOR …, priority 2006, published 2009)", "key": {"[1]": {"system": "HT1080 tet-off Flag-XBP-1s cells", "test": "Colony formation of HT1080 tet-off Flag-XBP-1s cells under hypoxia", "format": "cell-based, human", "details": "2.5 μM, no dox, hypoxia 48 hours"}, "[2]": {"system": "HT1080 tumor xenografts", "test": "Immunohistochemical analysis of tumor xenografts", "format": "in vivo, mouse", "details": "three doses, 50 mg/kg", "experimental": "Tumor-bearing mice were injected i.p. with hypoxyprobe (50 mg/kg) 1 hour prior to sacrifice. Mice were euthanised under anesthesia by cervical dislocation, and tumors were surgically resected, embedded in OCT compound (Sakura Tissue Tek), and frozen at −80° C. Tumors were sectioned at 8 μm, fixed in 4% paraformaldehyde, and blocked in PBS-4% BSA. Tissue sections were incubated overnight in block solution containing antisera specific for hypoxyprobe (1:250) and cleaved caspase-3 (1:400). Slides were washed three times with block solution and incubated for 2 hours at room temperature with anti-mouse Alexa 488 or anti-rabbit Alexa 594 (Invitrogen, San Diego, Calif.). Slides were washed five times in block solution, and coverslips mounted with Permount supplemented with DAPI.\nImmunohistochemical analysis of tumor xenografts. […] D. Quantification of tumor immunohistochemistry. At least 8 randomly chosen fields (>300 cells/field) per tumor were scored for pimonidazole and cleaved caspase-3 staining. A minimum of 3 tumors (250-300 mm^3 at harvest) were analyzed per treatment group. […]\nWe further examined tumors from control and irestatin-treated mice for differences in cell survival. […] The increase in apoptosis was most pronounced in hypoxic tissue regions of tumors, as determined by co-immunoreactivity for pimonidazole adducts (FIG. 14C, bottom panel). […]"}, "[3]": {"system": "PANC1 pancreatic adenocarcinoma cells", "test": "PANC1 tumor growth in nude mice", "format": "in vivo, mouse", "details": "60 mg/kg bolus every 48 hours, 5 doses, 5-7 tumors per group", "experimental": "Dose: 60 mg/kg ip bolus injection every 48 hours. 5 total doses. 5-7 tumors per group. PANC1 pancreatic adenocarcinoma cell line.\nPANC1 pancreatic adenocarcinoma cells were implanted subcutaneously into nude mice. Mice were then given a bolus injection of one of the inventive irestatins (1401, 9337, 3611 or 9389) at a dose of 60 mg/kg every 48 hours for a total of 5 doses, with 5-7 tumors being treated per group."}, "[4]": {"system": "ATF6", "test": "ATF6 cleavage in hypoxic HT1080 cells (Western blot)", "format": "cell-based, human", "details": "2.5 μM, hypoxia", "experimental": "(§1) A. Effect of irestatin 9389 on PERK and ATF6 pathways. HT1080 cells were treated with vehicle alone (lanes 1-4) or 2.5 μM irestatin 9389 (lanes 5-8) and cultured under aerobic conditions for 18 hours (N) or shifted to hypoxia for the indicated times. Protein lysates were analyzed by Western blot analysis using antisera specific for ATF6 (top), CHOP/GADD153 (middle) or actin (bottom). Arrow indicates the cleaved, transcriptionally active form of ATF6. B. Cleavage of caspase-3 in irestatin-treated cells under hypoxia. HT1080 cells were cultured in normoxia (N) or under hypoxia for 36 hours (H 36) in absence or presence of irestatin 9389 (2.5 μM). Arrows indicate proteolytically cleaved caspase-3. C. Colony formation assay. HT1080 cells were treated as in B under normoxia (N) or hypoxia for 48 hours (H 48). Cells were harvested, counted, and allowed to grow under normal culture conditions for 11-12 days. Colonies were visualized with crystal violet staining. D. Quantification of clonogenic survival assay. Values represent the mean+/−SEM from at least 4 independent experiments. E. TUNEL staining of cells treated as in C. F. Quantification of TUNEL-positive cells. Values represent the mean+/−SEM from at least 3 experiments. […] Cells were harvested at the indicated times and counted by hemocytometer. Values represent the mean calculated from triplicate experiments +/−SEM. […]"}, "[5]": {"system": "HT1080 fibrosarcoma", "test": "Cell proliferation assay, HT1080", "format": "cell-based, human", "details": "same concentrations", "experimental": "as §1"}, "[6]": {"system": "caspase-3", "test": "Cleavage of caspase-3 in HT1080 cells", "format": "cell-based, human", "details": "2.5 μM", "experimental": "as §1"}}, "data": [{"smiles": "Cc1csc(NC(=O)CSc2nc3c(c(C(F)(F)F)c2C#N)CCC3)n1", "note": "[Compound 9389]", "values": [{"measurement": "survival of hypoxic cells expressing Flag-XBP-1s", "setting": "[1]", "value": "minimal effect"}, {"measurement": "cleaved caspase-3 in tumors relative to vehicle", "setting": "[2]", "value": "significant increase"}, {"measurement": "tumor growth", "setting": "[3]", "value": "significant tumor growth was observed in untreated mice, but not in mice treated with the irestatins"}, {"measurement": "proteolytic cleavage of ATF6 into active 50 kDa form", "setting": "[4]", "value": "significantly increased"}, {"measurement": "growth rate of HT1080 cells under normal conditions", "setting": "[5]", "value": "negligible effect"}, {"measurement": "cleavage of caspase-3 under hypoxia", "setting": "[6]; 36 hours of hypoxia", "value": "stimulated cleavage of caspase-3"}, {"measurement": "caspase-3 processing under normal oxygen", "setting": "[6]; normal oxygen conditions", "value": "no effect on caspase-3 processing"}]}]}
